Measurements taken from patent publication US10781224B2, “Bis(oxymethyl)phosphinic acid and biogenic metal salts thereof as regulators of plant growth and development” (priority 2016, dated 2020).

System: winter wheat (Kazan 560 variety)
Assay: Field study: winter wheat seed treatment and spraying, yield and quality of the grain
Format: in vivo
Conditions: for Field germination, % / Grain mass from the main ear / Number of grains in an ear / Viability, % / Yield, dt/ha: winter wheat
Experimental: Field studies were conducted for the BHMPA Mg-salt. The effect of treatment winter wheat seeds (Kazan 560 variety) with BHMPA Mg-salt solutions on the yield and quality of the grain was examined. The field experiment was conducted at a branch of a fallow rotation. The seeds were sowed on Sep. 1, 2015, in an area covering 1.7 hectares of the experimental field located at the experimental base of Tatarstan Research Institute of Agriculture. For comparison, the seeds were treated with the BHMPA Mg-salt solution and the known growth-regulator Melaphen at the same concentrations, optimum for Melaphen.
The experiment was conducted for the following variants: • 1. Control (no seed treatment); • 2. Seed treatment with the BHMPA Mg-salt solution at a 1·10^−7% concentration; • 3. Seed treatment with the BHMPA Mg-salt solution at a 1·10^−7% concentration+spraying with the BHMPA Mg-salt solution at a 1·10^−8% concentration upon vegetation during spring tillering and earing phases; • 4. Seed treatment with the growth regulator Melaphen at a 1·10^−7% concentration; • 5. Seed treatment with Melaphen at a 1·10^−7% concentration and spraying with Melaphen at a 1·10^−8% concentration upon vegetation during spring tillering and earing phases.
The seeds were treated with the experimental compounds together with a seed disinfectant at a rate of 10 ml/T. The vegetating plants were treated at a rate of 5 ml/ha. Identical field operations appropriate for that zone as well as plant protection measures against weeds and disease, were applied in all cases.
Results of field experiments with BHMPA Mg-salt as the main growth-regulating component of said pre-sowing seed treatment combined with additional treatment of winter wheat plants with other claimed BHMPA salts, are presented in Table XXXV.

[1] = seed treatment 1 · 10^−7% + spraying plants with the same substance 1 · 10^−8%

**Q.** How did the plant viability (field, seed treatment plus additional spraying during spring tillering and earing phases) turn out when `O=P([O-])(CO)CO.O=P([O-])(CO)CO.[Mg+2]` [Mg-salt, Magnesium BHMPA Salt] was run?
**A.** The plant viability was “up to 61%”.

**Q.** And the “yield of winter wheat” value (field, seeds treated at 1·10^−7% and plants sprayed with 1·10^−8%, control 21.7 dt/ha)?
**A.** Its value is 30.7 dt/ha.

**Q.** And the plant viability (winter wheat Kazan 560, field, pre-sowing seed treatment, control 41%)?
**A.** Its plant viability is “up to 55%”.

**Q.** What about the “germination rate (field)” value (winter wheat Kazan 560, field, pre-sowing seed treatment, control 67%) of the same compound?
**A.** Its value is “up to 70%”.

**Q.** And the “Field germination, %” value (seed treatment 1 · 10^−7%)?
**A.** The value was 70%.

**Q.** What about the “Grain mass from the main ear” value (seed treatment 1 · 10^−7%) of the same compound?
**A.** The value was 1.1 g.

**Q.** And the “Number of grains in an ear” value (seed treatment 1 · 10^−7%)?
**A.** Its value is 31.

**Q.** What about the “Viability, %” value (seed treatment 1 · 10^−7%) of the same compound?
**A.** Its value is 55%.

**Q.** What about the “Yield, dt/ha” value (seed treatment 1 · 10^−7%) of the same compound?
**A.** The value was 29.2 dt/ha.

**Q.** And the “Field germination, %” value [1]?
**A.** Its value is 70%.

**Q.** What about the “Grain mass from the main ear” value [1] of the same compound?
**A.** Its value is 1.1 g.

**Q.** And the “Number of grains in an ear” value [1]?
**A.** Its value is 32.

**Q.** What about the “Viability, %” value [1] of the same compound?
**A.** The value was 61%.

**Q.** And the “Yield, dt/ha” value [1]?
**A.** Its value is 30.7 dt/ha.
